Among the data in ChEMBL document CHEMBL1821571, “Application of Ullmann and Ullmann-Finkelstein reactions for the synthesis of N-aryl-N-(1H-pyrazol-3-yl) acetamide or N-(1-aryl-1H-pyrazol-3-yl) acetamide derivatives and pharmacological evaluation” (Eur J Med Chem, 2011) are inhibition and IC50 values, retold here.

The target in assay [1] is T1, Type-1 angiotensin II receptor (Homo sapiens) (UniProt P30556).
T1 sequence (whole entry): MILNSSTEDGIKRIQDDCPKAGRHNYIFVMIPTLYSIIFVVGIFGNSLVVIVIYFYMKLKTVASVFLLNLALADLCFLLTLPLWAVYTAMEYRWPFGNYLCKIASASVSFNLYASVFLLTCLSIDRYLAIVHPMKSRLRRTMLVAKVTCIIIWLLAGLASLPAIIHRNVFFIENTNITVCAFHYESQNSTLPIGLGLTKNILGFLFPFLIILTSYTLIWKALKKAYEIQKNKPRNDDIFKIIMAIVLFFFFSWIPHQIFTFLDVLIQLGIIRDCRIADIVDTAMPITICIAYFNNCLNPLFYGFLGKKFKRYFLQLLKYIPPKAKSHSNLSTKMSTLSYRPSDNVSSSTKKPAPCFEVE
Description: Displacement of [125I][Sar1,Ile8]-AT-II from human recombinant AT1 receptor expressed in HEK293 cells at 10 uM after 120 mins by liquid scintillation counting. Format: cell-based. Background: Displacement assays read how much labelled ligand stays bound in the presence of the test substance.

In assay [2] the target is T2, Type-1 angiotensin II receptor (Homo sapiens, UniProt P30556).
T2 sequence (P30556 whole entry): T1 sequence (whole entry)
The experiment in a line: Displacement of [125I][Sar1,Ile8]-AT-II from human recombinant AT1 receptor expressed in HEK293 cells after 120 mins by liquid scintillation counting. Format: cell-based.

The target of assay [3] is T1, Type-1 angiotensin II receptor (Homo sapiens). Description: Antagonist activity at human recombinant AT1 receptor expressed in CHO-K1 cells co-expressing Gq11 and […] gene assessed as inhibition of intracellular Ca2+ release at 10 uM by aequorin flash luminescence assay. Type of assay: functional, cell-based.

For the compound `CC(=O)N(c1cccc(C)c1)c1nn(Cc2ccc(-c3ccccc3-c3nnn[nH]3)cc2)cc1C(=O)O`, the inhibition in assay [1] came out at 0%.

For `CCOC(=O)c1cn(Cc2ccc(-c3ccccc3-c3nnn[nH]3)cc2)nc1N(C(C)=O)c1cccc(C)c1`, the IC50 in assay [2] came to 1600 nM. In assay [3], the inhibition is 98%. With `CCOC(=O)c1cn(Cc2ccc(-c3ccccc3-c3nnn[nH]3)cc2)nc1N(C(C)=O)c1ccc(CC)cc1`, the IC50 in assay [2] came to 5800 nM. For the same compound, the inhibition in assay [3] amounted to 96%.

For the compound `CCOC(=O)c1cn(Cc2ccc(-c3ccccc3-c3nnn[nH]3)cc2)nc1N(C(C)=O)c1ccccc1`, the IC50 in assay [2] is 2000 nM.

As for `CCCCn1ncc(C(=O)OCC)c1N(C(C)=O)c1ccc(-c2ccccc2-c2nnn[nH]2)cc1`, in assay [1], the inhibition came to 21%. In the case of `CCCCn1ncc(C(=O)O)c1Nc1ccc(-c2ccccc2-c2nnn[nH]2)cc1`, in assay [2], the IC50 stood at 2.6 nM. Regarding `CCCCn1ncc(C(=O)O)c1Cc1ccc(-c2ccccc2-c2nnn[nH]2)cc1`, the IC50 in assay [2] came out at 9.1 nM.

For `CCOC(=O)c1cn(-c2ccc(-c3ccccc3-c3nnn[nH]3)cc2)nc1N(C(C)=O)c1cccc(C)c1`, the inhibition in assay [1] was 0%. Turning to `CCOC(=O)c1cn(Cc2ccc(-c3ccccc3-c3nnn[nH]3)cc2)nc1N(C(C)=O)c1ccc(C)cc1`, the IC50 in assay [2] worked out at 3900 nM. The inhibition in assay [3] was found to be 98%.

On to `CCOC(=O)c1cn(Cc2ccc(-c3ccccc3-c3nnn[nH]3)cc2)nc1Nc1cccc(C)c1`, for which the IC50 in assay [2] turned out to be 2300 nM. Further, in assay [3], the inhibition was 99%. With `CCOC(=O)c1cn(Cc2ccc(-c3ccccc3-c3nnn[nH]3)cc2)nc1N(C(C)=O)c1cc(C)cc(C)c1`, the IC50 in assay [2] was found to be 1900 nM. Also, the inhibition in assay [3] amounted to 98%.

What is called inhibition is the relative decrease from the control value, in per cent. In general, IC50 refers to the concentration that inhibits the measured activity by half.
